Literature values, collected in patent publication US20110223312A1, “TRIGLYCERIDE-ENCAPSULATED PHYTOSTEROL MICROPARTICLES DISPERSED IN BEVERAGES” (priority 2009, published 2011).

System: plasma cholesterol

SMILES | decrease of the plasma cholesterol level (9-18 grams of sitosterol per day, coarse powdered form, two earlier human studies) | lowering of serum cholesterol (12-18 g per day in divided doses, males with atherosclerosis (Faquhar et al. 1956))
CC[C@H](CC[C@@H](C)[C@H]1CC[C@H]2[C@@H]3CC=C4C[C@@H](O)CC[C@]4(C)[C@H]3CC[C@]12C)C(C)C [sitosterol] | approximately 15% | 
CC[C@H](CC[C@@H](C)[C@H]1CC[C@H]2[C@@H]3CC=C4C[C@@H](O)CC[C@]4(C)[C@H]3CC[C@]12C)C(C)C [beta sitosterol] |  | 15-20%
